Assays:
[1] = system: 13.5 dpc fetal mouse pancreas cells; test: Low cell density serum-free culture of 13.5 dpc fetal mouse pancreatic cells: total and insulin-positive β cell number; assay type: cell-based; conditions: for laminin-1 induced/mediated β cell differentiation: with laminin-1, four days
Procedure: (§1) Dissociated fetal pancreas cells were prepared from 13.5 dpc CBA mice. Pregnant mice at 13.5 dpc were killed by cervical dislocation and fetuses collected into ice cold sterile mouse tonicity phosphate-buffered saline (MTPBS). Fetal pancreata were harvested under an Olympus dissection microscope into RPMI 1640 medium and dissociated in a shaking water bath at 37° C. for 11 mins in Ca^2+/Mg^2+-free PBS containing 0.5% v/v trypsin/EDTA as described for testis by Bucci et al. (1986). After dissociation, trypsin was inactivated by addition of 8% w/v bovine serum albumin (BSA, fraction V) (Sigma, St. Louis, USA). The tissue was aspirated several times in a pipette, passed through a 27 gauge needle to make a single cell suspension and then rinsed in 10 μg/ml DNAse I (Promega, Madison, USA) in RPMI 1640 for 10 mins to reduce cellular aggregates. Cell suspensions were filtered through a 70-100 μm steel mesh, centrifuged at 400×g for 5 mins and the supernatant discarded. The cell pellet was resuspended in HYBRIDOMA medium and stored on ice. Cells were counted under a haemocytometer and viability was determined by exclusion of 0.2% v/v trypan blue dye. Pancreatic cells were plated in 8 chamber slides (Nunc) at 1.5×10^4 cells/well in 0.3 ml HYBRIDOMA medium 500 UI/ml penicillin and 500 μg/ml streptomycin. The cells were cultured in 10% v/v CO2, 90% v/v air at 37° C. with 100% humidity for four days in the presence of factors such as laminin-1 and BMPs.
Fetuses at 15.5 and 18.5 dpc from homozygous (−/−) or heterozygous (+/−) α6 integrin gene targeted (Georges-Labouesse et al., 1996) or wild type mice were fixed overnight in Bouin ? s solution. After standard dehydration processing, fetuses were embedded into paraffin and sectioned at 7 μm. Cultured pancreatic cells were washed three times with warm mouse tonicity phosphate buffered saline (MT-PBS) and fixed with 4% paraformaldehyde (PFA) for 10 mins. Endogenous peroxidase was blocked by 3% v/v H2O2 in methanol for 8 mins. Prior to antibody staining, non-specific protein binding was blocked by incubation for at least 30 mins with MT-PBS containing 2% w/v bovine serum albumin or 2% v/v normal rabbit serum. Controls were performed by replacing first antibody with pre-immune serum from the appropriate species. Cell were incubated with primary antibodies for 90 mins at room temperature, followed by three thorough washes with MT-PBS. Horseradish peroxidase-conjugated rabbit anti-guinea pig or swine anti-rabbit immunoglobulins (Dako) were added for 30 mins at room temperature followed by thorough washes. Immunoperoxidase was detected with 3,3′-diamninobenzidine/H2O2 for 4-8 mins, and slides were counterstained with haematoxylin.
Immunoperoxidase positive and negative cells were quantitated in the central strip of each culture chamber (a 90×90 mm square) under a microscope equipped with an eyepiece graticule (Olympus, Japan) at ×40 power and calibrated with a micrometer (Olympus). All data are presented as mean±s.e.m of at least three independent experiments.

[2] = system: α6 integrin and α-DG; test: Indirect immunofluorescence for α6 integrin and α-DG expression in cultured fetal pancreas cells; assay type: cell-based, mouse; conditions: day 2 (laminin-1 alone: day 2 and four)
Procedure: In some cultures, 100 μM BrdU (Sigma) was included to label proliferating cells; cells were fixed by 4% PFA at days 1, 2, 3 and 4 for insulin and BrdU double immunofluorescence staining. Fetuses were directly snap-frozen in liquid nitrogen, section at 8 μm, the sections air-dried for 40-60 mins and fixed in cold (−20° C.) acetone for 10 mins. Pre-treatment and primary antibody incubations were as described above, followed by incubation with Texas Red-conjugated goat anti-guinea pig immunoglobulins (Vector Laboratories, Burlingame, USA) or fluorescein isothiocyanate (FITC)-conjugated rabbit anti-mouse, -rat or -goat or swine anti-rabbit immunoglobulins (Dako) for 30 mins at room temperature and three thorough washes. Slides were observed and photomicrographed under a Zeis Axiopot fluorescence microscope.

[3] = system: 13.5 dpc fetal mouse pancreas cells; test: BrdU labelling of proliferating cells in 13.5 dpc fetal mouse pancreas cell culture; assay type: cell-based; conditions: 100 μM BrdU, laminin-1 (200 μg/ml), with or without GoH3, days 1-4
Procedure: After four days in culture, cells were washed twice with warm MT-PBS and fixed with a 4% v/v paraformaldehye for 10 mins. In some cases, 100 μM BrdU was added to label proliferating cells 12 hours before fixation and detection with monoclonal antibody to BrdU and FITC-labelled rabbit anti-mouse immunoglobulin. For immunoperoxidase staining, endogenous peroxidase was blocked by 3% v/v H2O2 in methanol for 8 mins and, prior to addition of primary antibody, non-specific protein binding was blocked by incubation for at least 30 mins in MTPBS containing 2% w/v BSA or 2% v/v normal rabbit serum. Controls were performed by replacing primary antibody with pre-immune serum from the appropriate species. Tissue sections or cells were incubated with primary antibodies for 90 min RT, followed by three thorough washes with MTPBS. […]
In some cultures, 100 μM BrdU (Sigma) was included to label proliferating cells; cells were fixed by 4% PFA at days 1, 2, 3 and 4 for insulin and BrdU double immunofluorescence staining. […] Slides were observed and photomicrographed under a Zeis Axiopot fluorescence microscope.

[4] = system: 13.5 dpc fetal mouse pancreas cells; test: Colony formation of 13.5 dpc fetal mouse pancreas cells cultured with BMPs and laminin-1; assay type: cell-based; conditions: 13.5 dpc fetal pancreas cells
Procedure: as §1
After four days in culture, cells were washed twice with warm MT-PBS and fixed with a 4% v/v paraformaldehye for 10 mins. In some cases, 100 μM BrdU was added to label proliferating cells 12 hours before fixation and detection with monoclonal antibody to BrdU and FITC-labelled rabbit anti-mouse immunoglobulin. For immunoperoxidase staining, endogenous peroxidase was blocked by 3% v/v H2O2 in methanol for 8 mins and, prior to addition of primary antibody, non-specific protein binding was blocked by incubation for at least 30 mins in MTPBS containing 2% w/v BSA or 2% v/v normal rabbit serum. Controls were performed by replacing primary antibody with pre-immune serum from the appropriate species. Tissue sections or cells were incubated with primary antibodies for 90 min RT, followed by three thorough washes with MTPBS. For immunoperoxidase staining, horseradish peroxidase-conjugated rabbit anti-guinea pig, swine anti-rabbit or rabbit anti-mouse immunoglobulins (Dako) diluted 1:80 were added for 30 mins at RT followed by thorough washes; colour was developed with 3,3′-diaminobenzidine/H2O2 for 4-8 mins and slides counterstained with haematoxylin.
A pancreatic cell colony was defined as a spherical collection of 20 cells. Colonies were counted under a×10 power objective with an eyepiece graticule.

[5] = system: E15.5 CBA mouse fetal pancreas cells; test: Cystic colony formation of E15.5 fetal mouse pancreas cells in laminin-1 overlay culture; assay type: cell-based
Procedure: Pancreata were dissected from embryonic day (E)15.5 CBA mouse fetuses and dissociated into single cells as described (Jiang et al., 1999). Briefly, dissected pancreas was digested with trypsin/EDTA for 15 minutes at 37° C. in a shaking water bath. Cells were counted in a haemocytometer and viability determined by trypan blue dye exclusion. Each fetal pancreas yielded 50,000 viable cells (48,509±11,299, n=14). Dissociated cells were plated in 8 well chamber slides (Nunc, Naperville, USA) at 7.5×10^4 cells/well in 0.3 ml AIM V medium supplemented with N-2 (1:100, Gibco BRL Life Technologies, Gaithersburg, USA), 500 UI/ml penicillin and 500 μg/ml streptomycin. Laminin-1 (160 μg/ml), purified from murine Engelbreth-Holm-Swarm tumor basement membrane (Becton Dickinson Labware, Bedford, USA), was overlayed on cells in the presence of various growth factors. Cultures were incubated in 10% CO2 90% air at 37° C., for up to 6 days. Recombinant human BMP 6 and BMP 5, recombinant human TGF-β1 and recombinant activin A were purchased from R&D Systems (Minneapolis, USA). These factors, dissolved at a concentration of 10 ng/μl in mouse tonicity phosphate buffered saline (PBS) containing 0.1% w/v bovine serum albumin (BSA), were added at the start of culture. Phase contrast images of colonies were photographed with Olympus IX70 digitized camera.
Colony formation was assessed at day 6 of culture. A colony was defined as a cellular sphere ≧30 μm in diameter, which contained more than 20 cells. The number of colonies per well was counted directly under a inverted microscope at ×10. Colony counts were performed using a blind design.

Compound: laminin-1: heterotrimeric matrix glycoprotein prepared from murine Englebreth-Holm-Swarm tumour cell basement membrane
- glucagon-positive cell number ([1]; in the presence of soluble laminin-1): unchanged
- total cell number per well ([1]; laminin-1 without or with 40 μg/ml GoH3, mean±s.e.m): 4016±650
- β cell number per well ([1]; laminin-1 without or with 40 μg/ml GoH3, mean±s.e.m n=3): 2265±240
- increase in number of insulin-positive β cells ([1]; soluble laminin-1, four days culture): 60 fold
- proportion of cells positive for both α6 integrin and α-DG [2]: approximately 10%
- BrdU-positive cells [3]: 2.5%

Compound: COc1cccc(-c2cc(=O)c3ccccc3o2)c1N [PD98059]
- laminin-1 induced/mediated β cell differentiation [1]: increased

Compound: C=C1[C@@H](C)[C@H]2[C@H](Cc3ccccc3)NC(=O)[C@]23[C@H](OC(C)=O)/C=C/[C@@](C)(O)C(=O)[C@@H](C)C/C=C/[C@H]3[C@@H]1O [Cytochalasin D]
- laminin-1 induced/mediated β cell differentiation [1]: increased

Compound: HGF: candidate growth factor
- proliferation or colony formation, candidate growth factors individually [4]: unable to promote proliferation or colony formation

Compound: PYY: candidate growth factor
- proliferation or colony formation, candidate growth factors individually [4]: unable to promote proliferation or colony formation

Compound: heparin
- effect on the GoH3-induced increase in β cell differentiation ([1]; heparin at 100 μM, laminin-1 plus GoH3): blocked the effect of α6 integrin antibody GoH3
- number of total and β cells ([1]; with laminin-1, heparin at 100 μM, p<0.05): significantly decreased

Compound: O=c1c(-c2ccc(O)cc2)coc2cc(O)cc(O)c12 [genistein]
- laminin-1 induced/mediated β cell differentiation [1]: did not affect

Compound: TGF-β1: recombinant human TGF-β1 from R&D Systems
- BMP 6-induced colony formation ([5]; 100 ng/ml against BMP 6 10 ng/ml, laminin-1 160 μg/ml, p<0.01 (FIG. 10B)): antagonized
- colony formation relative to laminin-1 alone ([5]; 100 ng/ml, laminin-1 160 μg/ml (FIG. 10A)): suppressed colony formation to levels below that observed with laminin-1 alone
- potency of inhibition of BMP 6-induced colony numbers relative to Activin A ([5]; dose-dependency of inhibition, BMP 6 10 ng/ml (FIG. 10C)): 100 fold

Compound: fibronectin
- inhibition of pancreatic / β cell survival ([1]; four days culture, compared to medium alone): no effect

Compound: gastrin
- proliferation or colony formation, candidate growth factors individually [4]: unable to promote proliferation or colony formation

Compound: EGF: candidate growth factor (NSDSECPLSHDGYCLHDGVCMYIEALDKYACNCVVGYIGERCQYRDLKWWELR; Epidermal growth factor; UniProt P01133 971-1023, looked up)
- proliferation or colony formation, candidate growth factors individually [4]: unable to promote proliferation or colony formation

Compound: CO[C@H]1[C@@H](OC)C[C@H](C)[C@@H](OC)C2=CC(=O)C=C(NC(=O)/C(C)=C/C=C\[C@H](OC)[C@@H](OC(N)=O)/C(C)=C/[C@@H]1C)C2=O [herbimycin A]
- laminin-1 induced/mediated β cell differentiation [1]: did not affect

Reference: US6967100B2, “Pancreatic islet cell growth factors” (The Walter and Eliza Hall Institute of Medical Research, priority 2000, dated 2005)
